What was measured:
Histone deacetylase 1 = Histone deacetylase 1 (Homo sapiens, UniProt Q13547); assay: Inhibition of HDAC1 (unknown origin) assessed as release of 7-amino-4-methylcoumarin incubated in room temperature for 15 min measured by Spectra max microtitre plate reader
[1] = biological target: T1, Protein deacetylase HDAC6 (Homo sapiens, UniProt Q9UBN7); assay: Inhibition of HDAC6 (unknown origin) assessed as release of 7-amino-4-methylcoumarin incubated in room temperature for 15 min measured by Spectra max microtitre plate reader
T1 sequence (Q9UBN7 whole entry): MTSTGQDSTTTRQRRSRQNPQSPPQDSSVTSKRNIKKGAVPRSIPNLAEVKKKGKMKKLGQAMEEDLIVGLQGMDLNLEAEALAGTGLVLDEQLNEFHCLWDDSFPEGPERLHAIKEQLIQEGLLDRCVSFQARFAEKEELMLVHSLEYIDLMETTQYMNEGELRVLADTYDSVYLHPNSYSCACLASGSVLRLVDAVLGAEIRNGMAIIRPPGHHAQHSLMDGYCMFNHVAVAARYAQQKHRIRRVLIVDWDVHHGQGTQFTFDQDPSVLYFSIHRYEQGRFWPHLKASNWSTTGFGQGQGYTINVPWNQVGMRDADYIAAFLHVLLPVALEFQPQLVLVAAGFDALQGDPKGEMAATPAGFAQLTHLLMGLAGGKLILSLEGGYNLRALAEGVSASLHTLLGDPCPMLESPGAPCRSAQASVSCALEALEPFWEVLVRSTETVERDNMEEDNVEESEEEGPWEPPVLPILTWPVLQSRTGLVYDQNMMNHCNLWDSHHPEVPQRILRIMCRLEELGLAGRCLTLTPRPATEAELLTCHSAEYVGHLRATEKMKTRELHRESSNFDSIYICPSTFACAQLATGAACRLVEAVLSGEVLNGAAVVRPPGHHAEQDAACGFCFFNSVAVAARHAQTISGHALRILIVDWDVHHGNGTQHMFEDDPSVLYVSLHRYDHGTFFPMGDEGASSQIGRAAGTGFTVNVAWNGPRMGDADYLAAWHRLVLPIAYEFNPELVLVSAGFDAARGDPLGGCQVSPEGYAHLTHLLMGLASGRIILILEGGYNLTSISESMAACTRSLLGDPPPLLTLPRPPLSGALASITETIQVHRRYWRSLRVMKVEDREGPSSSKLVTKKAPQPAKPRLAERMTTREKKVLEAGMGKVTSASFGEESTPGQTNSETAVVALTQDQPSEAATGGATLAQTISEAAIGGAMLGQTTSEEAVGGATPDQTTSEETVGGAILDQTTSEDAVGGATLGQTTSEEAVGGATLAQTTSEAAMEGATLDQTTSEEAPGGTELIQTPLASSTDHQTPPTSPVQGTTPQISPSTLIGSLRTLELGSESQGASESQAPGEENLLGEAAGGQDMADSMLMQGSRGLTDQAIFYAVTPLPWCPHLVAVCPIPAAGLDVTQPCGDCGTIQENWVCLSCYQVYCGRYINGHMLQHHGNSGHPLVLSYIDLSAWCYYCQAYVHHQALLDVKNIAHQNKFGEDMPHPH

Adenosine receptor A2a = Adenosine receptor A2a (Homo sapiens, UniProt P29274); assay: Displacement of [3H]SCH58261 from adenosine A2A receptor membrane (unknown origin) measured after 60 mins by scintillation counting analysis; assay type: cell membranes
CT26 = assay: Antiproliferative activity against mouse CT26 cells measured after 72 hrs by CCK8 assay; assay type: functional
MC-38 = assay: Antiproliferative activity against mouse MC38 cells measured after 72 hrs by CCK8 assay; assay type: functional

Chain of Histone deacetylase 1 (Q13547 whole entry): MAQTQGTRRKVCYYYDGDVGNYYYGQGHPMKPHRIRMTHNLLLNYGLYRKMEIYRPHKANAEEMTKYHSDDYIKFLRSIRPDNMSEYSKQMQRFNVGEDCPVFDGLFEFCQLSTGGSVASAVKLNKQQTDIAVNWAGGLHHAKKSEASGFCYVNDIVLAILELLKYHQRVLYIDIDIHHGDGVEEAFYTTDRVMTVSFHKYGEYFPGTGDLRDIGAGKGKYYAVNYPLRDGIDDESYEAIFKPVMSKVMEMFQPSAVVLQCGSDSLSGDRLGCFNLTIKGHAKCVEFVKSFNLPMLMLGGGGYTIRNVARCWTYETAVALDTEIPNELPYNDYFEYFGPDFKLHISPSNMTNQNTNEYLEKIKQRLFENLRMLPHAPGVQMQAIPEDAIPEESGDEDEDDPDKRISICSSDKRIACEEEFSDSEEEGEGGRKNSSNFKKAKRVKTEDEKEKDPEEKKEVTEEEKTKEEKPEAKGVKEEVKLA
Chain of Adenosine receptor A2a (P29274 whole entry): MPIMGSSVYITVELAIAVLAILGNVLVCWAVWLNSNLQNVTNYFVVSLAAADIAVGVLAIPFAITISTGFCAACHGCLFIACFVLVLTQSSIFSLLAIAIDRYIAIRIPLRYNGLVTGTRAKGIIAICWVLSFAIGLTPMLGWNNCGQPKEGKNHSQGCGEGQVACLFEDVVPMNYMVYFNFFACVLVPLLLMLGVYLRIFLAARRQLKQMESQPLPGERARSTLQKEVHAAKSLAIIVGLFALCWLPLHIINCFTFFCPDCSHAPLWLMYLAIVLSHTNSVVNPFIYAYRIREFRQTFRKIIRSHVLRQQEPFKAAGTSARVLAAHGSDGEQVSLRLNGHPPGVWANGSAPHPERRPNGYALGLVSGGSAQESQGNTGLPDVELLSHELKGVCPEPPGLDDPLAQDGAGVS

IC50 (Histone deacetylase 1) [nM]	IC50 [1] [nM]	Ki (Adenosine receptor A2a) [nM]	GI50 (CT26; Mus musculus, CT26) [nM]	GI50 (CT26) [nM]	SMILES	GI50 (MC-38; Mus musculus, MC-38) [nM]	GI50 (MC-38) [nM]
81	16	2			Nc1nc2c(cnn2CCc2ccc(OCCCCCC(=O)NO)cc2)c2nc(-c3ccco3)nn12		
			1800		Nc1ccccc1NC(=O)c1ccc(CNc2nccc(-c3cccnc3)n2)cc1 [MOCETINOSTAT]	21000	
138	7.6	4.3	100000		Nc1nc2c(cnn2CCc2ccc(C(=O)NO)cc2)c2nc(-c3ccco3)nn12	100000	
2680		10.1			Nc1cc(F)ccc1NC(=O)c1ccc(CCCn2ncc3c2nc(N)n2nc(-c4ccco4)nc32)cc1		
84	32	3.7	11900		Nc1nc2c(cnn2CCN2CCC(c3ccc(C(=O)NO)cc3)CC2)c2nc(-c3ccco3)nn12	16900	
486	74	82.8			Nc1nc2c(cnn2CCCCC(=O)NO)c2nc(-c3ccco3)nn12		
162	35	19.9			Nc1nc(NCc2ccc(OCCCCC(=O)NO)cc2)nc2nc(-c3ccco3)nn12		
7.4	3.2	10.2	> 100000		Nc1nc(NCCOc2ccc(C(=O)NO)cc2)nc2nc(-c3ccco3)nn12	> 100000	
137	> 10000	3.9	59100		Nc1ccccc1NC(=O)c1ccc(CCNc2nc(N)n3nc(-c4ccco4)nc3n2)cc1	48200	
59.5	> 10000	3.9	25200		Nc1ccccc1NC(=O)c1ccc(CCCNc2nc(N)n3nc(-c4ccco4)nc3n2)cc1	25400	
8	5.9	4.9	> 100000		Nc1nc2c(cnn2CCc2ccc(NC(=O)CCCCCCC(=O)NO)cc2)c2nc(-c3ccco3)nn12	> 100000	
126		18.5	> 100000		Cc1ccc(-c2nc3c4cnn(CCc5ccc(C(=O)Nc6ccccc6N)cc5)c4nc(N)n3n2)o1	> 100000	
53	> 10000	86.9			Nc1ccccc1NC(=O)c1ccc(Cn2ncc3c2nc(N)n2nc(-c4ccco4)nc32)cc1		
220	19	4.2	> 100000		Nc1nc(N2CCN(CCc3ccc(C(=O)NO)cc3)CC2)nc2nc(-c3ccco3)nn12	> 100000	
23.7	4.9	8.4	> 100000		Nc1nc(NCCCc2ccc(C(=O)NO)cc2)nc2nc(-c3ccco3)nn12	> 100000	
27	15	77.8	17800		Nc1nc2c(cnn2CCCCCC(=O)NO)c2nc(-c3ccco3)nn12	14000	
21.5	18	15.7	> 100000		CN(CCOc1ccc(C(=O)NO)cc1)c1nc(N)n2nc(-c3ccco3)nc2n1	> 100000	

Further lines, the molecule ahead of its results:

SMILES	IC50 (Histone deacetylase 1) [nM]	IC50 [1] [nM]	Ki (Adenosine receptor A2a) [nM]	GI50 (CT26; Mus musculus, CT26) [nM]	GI50 (CT26) [nM]	GI50 (MC-38; Mus musculus, MC-38) [nM]	GI50 (MC-38) [nM]
Nc1nc(NCc2ccc(/C=C/C(=O)NO)cc2)nc2nc(-c3ccco3)nn12	5	9	27	17500		20700	
Nc1nc2c(cnn2CCCCCCC(=O)NO)c2nc(-c3ccco3)nn12	3.8	6.6	10.1	1400		1400	
Nc1ccccc1NC(=O)c1ccc(CNc2nc(N)n3nc(-c4ccco4)nc3n2)cc1	65.7	> 10000	34.8	16500		14100	
Nc1cc(F)ccc1NC(=O)c1ccc(CCn2ncc3c2nc(N)n2nc(-c4ccco4)nc32)cc1	228		2.8	11200		10800	
Nc1cc(F)ccc1NC(=O)c1ccc(CCNc2nc(N)n3nc(-c4ccco4)nc3n2)cc1	173	> 10000	9.6	44000		25900	
O=C(CCCCCCC(=O)Nc1ccccc1)NO [VORINOSTAT]					2700		2400
Nc1nc2c(cnn2CCN2Cc3ccc(C(=O)NO)cc3C2)c2nc(-c3ccco3)nn12	> 10000		60.4				
Nc1nc(NCCCCCCC(=O)NO)nc2nc(-c3ccco3)nn12	7.7	10.6	21.2	31600		35700	
Nc1ccccc1NC(=O)c1ccc(CCn2ccc3c2nc(N)n2nc(-c4ccco4)nc32)cc1	90		0.87	> 100000		> 100000	
Nc1ccccc1NC(=O)c1ccc(OCCNc2nc(N)n3nc(-c4ccco4)nc3n2)cc1	68.5	> 10000	4.9	32400		36900	
Nc1nc(NCCc2ccc(OCCCC(=O)NO)cc2)nc2nc(-c3ccco3)nn12	108	132	6				
Nc1nc(NCCc2ccc(C(=O)NO)cc2)nc2nc(-c3ccco3)nn12	104	14.8	6.3	> 100000		> 100000	
Nc1nc(NCc2ccc(C(=O)NO)cc2)nc2nc(-c3ccco3)nn12	21.5	3	84.8				
Nc1nc(NCCc2ccc(OCCCCCC(=O)NO)cc2)nc2nc(-c3ccco3)nn12	86.7	8	0.95	25900		15000	
Nc1nc(NCCc2ccc(O)cc2)nc2nc(-c3ccco3)nn12 [ZM-241385]	> 10000	> 1000					
Nc1nc2c(cnn2CCN2CCc3ccc(C(=O)NO)cc3C2)c2nc(-c3ccco3)nn12	399	80	5.6				
Nc1nc(NCCc2ccc(OCCCCC(=O)NO)cc2)nc2nc(-c3ccco3)nn12	102	37	5.8				
Nc1nc(NCCc2ccc(/C=C/C(=O)NO)cc2)nc2nc(-c3ccco3)nn12	10.2	69	37.8	42900		40500	
CCN(CCc1ccc(C(=O)NO)cc1)c1nc(N)n2nc(-c3ccco3)nc2n1	175	22	2.4				
CN(CCc1ccc(C(=O)NO)cc1)c1nc(N)n2nc(-c3ccco3)nc2n1	159	17.4	4.4	75100		69200	
Nc1ccccc1NC(=O)c1ccc(CCCn2ncc3c2nc(N)n2nc(-c4ccco4)nc32)cc1	203		3.3	> 100000		> 100000	
Nc1ccccc1NC(=O)c1ccc(OCCn2ncc3c2nc(N)n2nc(-c4ccco4)nc32)cc1	279		43.7	8800		7100	
Nc1nc(NCCc2ccc(NC(=O)CCCCCCC(=O)NO)cc2)nc2nc(-c3ccco3)nn12	11.5	5.9	11.3	> 100000		> 100000	

Reference: ChEMBL document CHEMBL5030563, “Structure-Based Design of Dual-Acting Compounds Targeting Adenosine A2A Receptor and Histone Deacetylase as Novel Tumor Immunotherapeutic Agents” (J Med Chem, 2021)
